Laboratory results from patent US20190225670A1, “COMPOUNDS AND METHODS FOR ACTIVATING TIE2 SIGNALING” (ASCLEPIX THERAPEUTICS, LLC, priority 2016, published 2019).
Entries after “also recorded” stand apart in the source; their conditions may differ.

Columns and labels:
F-actin = F-actin immunofluorescence in MEC monolayers; type: cell-based, human; conditions: 200 ng/ml Ang2, increasing concentrations of AXT107
Protocol: (§1) The jaggedness of these junctions is related to the structure of actin within the cell.
(§2) Glass-bottomed, 96-well plates with half well size were coated with 10 μg/ml FN1 for two hours at 37° C. The FN1 solution was then removed by aspiration and the plate seeded with 4×10^3 MECs in EGM-2MV media. After twenty-four hours, the cells were washed once with dPBS containing Ca^2+ and Mg^2+ to remove dead cells and the cells were allowed to grow for an additional twenty-four hours. For three-hour duration treatments (i.e., VE-cadherin), cells were washed twice with dPBS containing Ca^2+ and Mg^2+ and serum starved in EBM-2 for ninety minutes. The media was then removed and the cells were treated for three hours with 100 μl of EBM-2 media containing 200 ng/ml Ang2 or PBS and varying concentrations of AXT107 or DMSO. For fifteen minute-treated samples (i.e., phospho-Tie2), the cells were serum starved in EBM-2 media for 165 minutes, incubated for ninety minutes with varying concentrations of AXT107 or DMSO in EBM-2, and finally stimulated for fifteen minutes with 200 ng/ml Ang2 or PBS supplemented with peptide to retain the same concentrations. These times were chosen so that both treatment procedures would be completed at the same time. The cells were then washed twice with cold dPBS containing Ca^2+ and Mg^2+ and fixed in 10% neutral buffered formalin for fifteen minutes. […]

[1] = Self-assembly of peptide in media; type: physicochemical; conditions: cell culture media
STAT3 = experiment: Western blot of phospho-STAT3 (Y705) in MEC lysates treated with Ang2 and AXT107; type: cell-based, human
Protocol: (§3) A confluent monolayer of human microvascular endothelial cells (HMEC) was serum starved with EBM-2 overnight. After a 90 min treatment with AXT107 at concentrations of 0, 10, 32, and 100 μM, the cells were treated for 15 min with 1 mM sodium orthovanadate. Next the cells were treated with Angiopoietin-2 (Ang-2) at 200 ng/mL for 15 min. Following cell lysis, the lysates were immunoblotted for pTie2 (Y992), pSTAT3 (Y705), and pAkt (S473).
(§4) For Ang1/2 signaling investigations, cell culture dishes (10 cm diameter) were coated with 5 μg/ml fibronectin (FN1; Sigma-Aldrich, St. Louis, Mo.) for two hours at 37° C. The FN1 solution was then removed by aspiration and 5×10^6 microvascular endothelial cells (MECs; Lonza, Walkersville, Md.) were plated in EGM-2MV media (Lonza) and cultured for forty-eight hours at 37° C. […] Specific proteins were identified by Western blot, using the following primary antibodies: Cell Signaling—phospho-Tie2 (Y992) (Cat#: 4221), Tie2 (Cat#: 7403), phospho-Stat3 (Y705) (Cat#: 4113), Stat3 (Cat#: 4904), phospho-Akt (S473) (Cat#: 4058), Akt (Cat#: 9272), phospho-p44/42 MAPK (T202/Y204) (Cat#: 4370), p44/42 MAPK (Cat#: 4695); BD Transduction Laboratories—β1 integrin (Cat#: 610467); Millipore—α5 integrin (Cat#: AB1928) and detected with HRP-conjugated goat anti-rabbit and sheep anti-mouse secondary antibodies (GE healthcare).

VE-cadherin = VE-cadherin western blot and immunofluorescence in MEC monolayers; type: cell-based, human
Protocol: as §1, §2

Tie2 [2] = experiment: Western blot of phospho-Tie2 (Y992) in MEC monolayers treated with AXT107 and angiopoietin; type: cell-based, human
Protocol: as §3
To investigate the effects of the integrin inhibitor AXT107 on Tie2 signaling, confluent monolayers of microvascular endothelial cells (MECs) on fibronectin-coated dishes were treated with various concentrations of AXT107 followed by exposure to the Tie2 ligands Ang1 or Ang2.
For Ang1/2 signaling investigations, cell culture dishes (10 cm diameter) were coated with 5 μg/ml fibronectin (FN1; Sigma-Aldrich, St. Louis, Mo.) for two hours at 37° C. The FN1 solution was then removed by aspiration and 5×10^6 microvascular endothelial cells (MECs; Lonza, Walkersville, Md.) were plated in EGM-2MV media (Lonza) and cultured for forty-eight hours at 37° C. The cells were then serum starved for sixteen hours in serum-free EGM-2 base media (Lonza). AXT107 (0-100 μM, as indicated) was subsequently added to each culture and incubated for seventy-five minutes at 37° C. The cultures were then treated with 1 mM sodium vanadate (New England Biolabs, Ipswich, Mass.) for fifteen minutes to enhance the phospho-Tie2 signal followed by stimulation with 200 ng/ml angiopoietin (R&D Systems, Minneapolis, Minn.) for an additional fifteen minutes. The cells were then transferred to ice, washed twice with ice cold Dulbecco's phosphate-buffered saline (dPBS) containing Ca^2+ and Mg^2+, and collected by scraping in 500 μl of 1×Blue Loading Buffer (Cell Signaling, Danvers, Mass.). Lysate samples were then sonicated, boiled, and resolved by SDS-PAGE. Specific proteins were identified by Western blot, using the following primary antibodies: Cell Signaling—phospho-Tie2 (Y992) (Cat#: 4221), Tie2 (Cat#: 7403), phospho-Stat3 (Y705) (Cat#: 4113), Stat3 (Cat#: 4904), phospho-Akt (S473) (Cat#: 4058), Akt (Cat#: 9272), phospho-p44/42 MAPK (T202/Y204) (Cat#: 4370), p44/42 MAPK (Cat#: 4695); BD Transduction Laboratories—β1 integrin (Cat#: 610467); Millipore—α5 integrin (Cat#: AB1928) and detected with HRP-conjugated goat anti-rabbit and sheep anti-mouse secondary antibodies (GE healthcare).

Tie2 [3] = experiment: Retinopathy of prematurity (ROP) mouse model, Tie2 activation; type: in vivo; conditions: no data given
Text: To investigate the effects of AXT107 on Tie2 activation in vivo, retinopathy of prematurity (ROP) mouse model was used. In this system, P7 pups are placed in 75% 02 for five days, resulting in a loss of retinal capillary density from hyperoxia and a rapid induction of neovascularization upon the pup's return to normoxic conditions. […] Increased levels of Ang2 in the vitreous contribute to vessel leakage and macular edema in various retinopathies.

Akt = experiment: Western blot of phospho-Akt (S473) in MEC lysates treated with Ang2 and AXT107; type: cell-based, human
Protocol: as §3, §4

[4] = test system: myosin light chain 2 (MLC2); experiment: Western blot of pMLC2 in MECs treated with Ang2 and AXT107; type: cell-based, human; conditions: AXT107 and 200 ng/ml Ang2
Protocol: Phosphorylation of Tie2 is known to stimulate the Rap1-GTPase pathway, leading to a reduction in the phosphorylation of the downstream motor protein myosin light chain 2 (MLC2) associated with actin rearrangement.
as §4, with “forty-eight hours at 37° C. The cells were then serum starved for sixteen hours in serum-free EGM-2 base media (Lonza). AXT107 (0-100 μM, as indicated) was subsequently added to each culture and incubated for seventy-five minutes at 37°” for “forty-eight hours at 37°”

LRRFSTAPFAFIDINDVINF [AXT107]
actin fiber arrangement (F-actin): became more cortical | self-assembly when added to media [1]: self-assemble into peptide complexes | STAT3 phosphorylation (STAT3): increased phosphorylation | distribution of VE-cadherin at junctions (VE-cadherin; 200 ng/ml Ang2, increasing concentrations of AXT107): became progressively smoother | total level of VE-cadherin (VE-cadherin; three hours of AXT107 and 200 ng/ml Ang2): remained unchanged | Tie2 phosphorylation (Tie2 [2]; AXT107 0-100 μM, then 200 ng/ml Ang2 15 min): increased phosphorylation; also recorded: significant, dose-dependent increase | Ang1 activity (Tie2 phosphorylation) (Tie2 [2]; AXT107 followed by Ang1, data not shown): did not significantly influence | total protein levels of Tie2 (Tie2 [2]; AXT107 with angiopoietin): remained unchanged; also recorded: does not influence total levels of Tie2 | phosphorylation by peptide alone (Tie2 [2]; in absence of either ligand): not induced | activation of Tie2 by Ang2 in vivo (Tie2 [3]): potentiates the activation of Tie2 by Ang2 | Akt phosphorylation (Akt): increased phosphorylation | phosphorylation of MLC2 [4]: reduced in a dose-dependent manner
